Test results published in US9458428B2, “Methods and compositions for the rapid production of retinal pigmented epithelial cells from pluripotent cells” (The Regents of the University of California, priority 2012, dated 2016).
Ends that are not written are not given here.

What was measured:
pluripotent stem cells [1] = experiment: qPCR gene expression, early eye field differentiation, day 4; format: cell-based, human; details: for expression of early neural/early eye field marker Lhx2 / expression of early neural/early eye field marker Rax / expression of the pluripotency genes Oct4 and Nanog: day 4, added to IGF1, Noggin, Dkk1 and bFGF, compared with controls; for expression of the pluripotency genes Oct4 and Nanog: 10 mM nicotinamide or 5 mM 3-aminobenzamide
Procedure: (§1) Pluripotent stem cells were passaged directly onto Matrigel (BD Biosciences) in DMEM/F12 with 1×B27, 1×N2, and 1×NEAA (Invitrogen). From days 0 to 2, 50 ng/ml Noggin, 10 ng/ml Dkk1, and 10 ng/ml IGF1 (R&D Systems Inc., Minneapolis, Minn., http://www.rndsystems.com) and in some experiments 10 mM nicotinamide or 5 mM 3-aminobenzamide (Sigma-Aldrich) were added to the base medium. From days 2 to 4, 10 ng/ml Noggin, 10 ng/ml Dkk1, 10 ng/ml IGF1, and 5 ng/ml bFGF and in some experiments 10 mM nicotinamide or 5 mM 3-aminobenzamide were added to the base medium. From days 4 to 6, 10 ng/ml Dkk1 and 10 ng/ml IGF1 and in some experiments 100 ng/ml Activin A (R&D Systems) were added to the base medium. From days 6 to 14, 100 ng/ml Activin A, 10 μM SU5402 (EMD Millipore, Darmstadt, Germany, http://www.emdmillipore.com), and […] VIP (Sigma-Aldrich) were added to the base medium. Control experiments were also performed in base media alone (DMEM/F12, B27, N2, and NEAA).
(§2) Quantitative Real-Time Polymerase Chain Reaction Total RNA of RPE marker genes was isolated using primers based upon the mRNA sequences of such genes. QPCR methods were carried out with the RNeasy Plus Mini Kit (Qiagen, Hilden, Germany, http://www.qiagen.com). cDNA was synthesized from 1 μg of RNA using the iScript cDNA Synthesis Kit (Bio-Rad, Hercules, Calif., http://www.bio-rad.com). Primer pairs were designed to create a 75-200-base pair product (Beacon Design 4.0; Premier Biosoft International, Palo Alto, Calif., http://www.premierbiosoft.com). Quantitative real-time polymerase chain reaction (PCR) was carried out on a Bio-Rad MyIQ Single Color Real-Time PCR Detection System using the SYBR Green method, as described in Woo T H, Patel B K, Cinco M et al. Identification of Leptospira biflexa by real-time homogeneous detection of rapid cycle PCR product. J Microbiol Methods 1999; 35:23-30. Triplicate 20-μl reactions were run in a 96-well plate with half of the cDNA synthesis reaction used per plate. Primer specificity was confirmed by melting temperature analysis, gel electrophoresis, and direct sequencing (Iowa State DNA Facility, Ames, Iowa). The data were normalized to the geometric mean of the “housekeeping” genes: glyceraldehyde phosphate dehydrogenase (GAPDH), hydroxymethylbilane synthase (HMBS), and glucose phosphate isomerase (GPI), as described in Radeke M J, Peterson K E, Johnson L V et al. Disease susceptibility of the human macula: Differential gene transcription in the retinal pigmented epithelium/choroid. Exp Eye Res 2007; 85:366-380.

early eye field cells [2] = experiment: qPCR gene expression, RPE specification of early eye field cells, day 10; format: cell-based, human; details: for gene expression of Mitf / expression of Rax: day 10; for gene expression of Mitf: Activin A added days 4-10, SU5402 or VIP days 6-10
Procedure: as §1, §2

[3] = molecular target: cAMP-dependent protein kinase; details: cited from earlier work
dissociated RPE = experiment: Rescue of RPE after single-cell dissociation on day 14; format: cell-based, human; details: 10 μM for the first 3 days after passage
Procedure: The cells were mechanically enriched by scraping away cells with non-RPE morphology. Subsequently, the remaining RPE were digested using TrypLE Express (Invitrogen) for ˜5 minutes at 37° C. The cells were passed through a 30-μm single-cell strainer and seeded onto Matrigel-coated tissue culture plastic, Transwell membranes (Corning Enterprises, Corning, N.Y., http://www.corning.com), or CC2-treated chambered slides. Enriched cells were cultured in DMEM-high glucose with 1% fetal bovine serum (FBS), GlutaMAX, and sodium pyruvate (Invitrogen) for 30 days, as described in Ahmado A, Carr A J, Vugler A A et al. Induction of differentiation by pyruvate and DMEM in the human retinal pigment epithelium cell line ARPE-19. Invest Ophthalmol Vis Sci 2011; 52:7148-7159.
Differentiated Cells Can Be Enriched on Day 14 to Homogenous Cultures of Functional RPE. To generate more homogenous populations of RPE, readily visible sheets on day 14 were mechanically isolated, dissociated into single cells, and replated in an RPE medium described in Buchholz D E, Hikita S T, Rowland T J et al. Derivation of functional retinal pigmented epithelium from induced pluripotent stem cells. STEM CELLS 2009; 27:2427-2434, on Matrigel-coated tissue culture plastic, chambered slides, or Transwell inserts. […]

PKC = details: cited from earlier work
[4] = molecular target: myosin light-chain kinase; details: cited from earlier work
pluripotent stem cells [5] = experiment: Cell morphology during early eye field differentiation; format: cell-based, human; details: compared with control cells
Procedure: as §1

early eye field cells [6] = experiment: Pigmentation of differentiating cultures; format: cell-based, human; details: cultures containing VIP, between days 10 and 14
Procedure: as §1

[7] = Activin A added days 4-10, SU5402 days 6-10

| Molecule | expression of early neural/early eye field marker Lhx2 (pluripotent stem cells [1]) | expression of early neural/early eye field marker Rax (pluripotent stem cells [1]) | expression of the pluripotency genes Oct4 and Nanog (pluripotent stem cells [1]) | gene expression of Mitf (early eye field cells [2]) | expression of Rax (early eye field cells [2]; [7]) | further results |
| --- | --- | --- | --- | --- | --- | --- |
| NC(=O)c1cccc(N)c1 [3-aminobenzamide] | significantly increased | significantly increased | reduced | – | – | ability to recapitulate the effects of nicotinamide (pluripotent stem cells [1]; day 4, overall): partially recapitulate the effects of nicotinamide |
| Cc1c[nH]c(/C=C2\C(=O)Nc3ccccc32)c1CCC(=O)O [SU5402] | – | – | – | little effect | little effect | expression of Rax (early eye field cells [2]; SU5402 in combination with Activin A): further decreased |
| C[C@@H](N)[C@H]1CC[C@H](C(=O)Nc2ccncc2)CC1 [Y-27632] | – | – | – | – | – | Ki [3]: 25 µM; RPE survival and maturation after single-cell dissociation (dissociated RPE): […]; Ki (PKC): […]; Ki [4]: > 250 µM |
| NC(=O)c1cccnc1 [nicotinamide] | increased | the increase in Rax was not significant | significantly decreased | – | – | Pax6(−5a) expression (pluripotent stem cells [1]; day 4, nicotinamide against control conditions): similar; cell morphology (pluripotent stem cells [5]): rapidly adopted a radial/rosette morphology |
| VIP: vasoactive intestinal peptide, a cyclic AMP upregulator (HSDAVFTDNYTRLRKQMAVKKYLNSILN; ends and bridges not checked; UniProt P01282 125-152, looked up) | – | – | – | significantly increased | – | expression of RPE marker gene PEDF (early eye field cells [2]; VIP added days 6-10): significantly increased; expression of RPE marker gene tyrosinase (early eye field cells [2]; VIP added days 6-10): significantly increased; pigmentation (early eye field cells [6]): increased |
| Activin A: Recombinant Activin A, media additive (protein, UniProt P08476 311-426, looked up) Inhibin beta A chain: GLECDGKVNICCKKQFFVSFKDIGWNDWIIAPSGYHANYCEGECPSHIAGTSGSSLSFHSTVINHYRMRGHSPFANLKSCCVPTKLRPMSMLYYDDGQNIIKKDIQNMIVEECGCS | – | – | – | little effect | significantly decreased | – |
